From US8197794B2, “Core 2 GlcNAc-T inhibitors” (MS Therapeutics Limited, priority 2003, dated 2012)
pIC50: −log10 of the molar value. Where two headings read alike, the source gives them in different places.

Columns and labels:
[1] = molecular target: T1, Core 2 GlcNAc-T (Homo sapiens, UniProt Q02742); assay: Core 2 GlcNAc-T inhibition, assay system not given; assay type: biochemical
T1 sequence (Q02742 1-428): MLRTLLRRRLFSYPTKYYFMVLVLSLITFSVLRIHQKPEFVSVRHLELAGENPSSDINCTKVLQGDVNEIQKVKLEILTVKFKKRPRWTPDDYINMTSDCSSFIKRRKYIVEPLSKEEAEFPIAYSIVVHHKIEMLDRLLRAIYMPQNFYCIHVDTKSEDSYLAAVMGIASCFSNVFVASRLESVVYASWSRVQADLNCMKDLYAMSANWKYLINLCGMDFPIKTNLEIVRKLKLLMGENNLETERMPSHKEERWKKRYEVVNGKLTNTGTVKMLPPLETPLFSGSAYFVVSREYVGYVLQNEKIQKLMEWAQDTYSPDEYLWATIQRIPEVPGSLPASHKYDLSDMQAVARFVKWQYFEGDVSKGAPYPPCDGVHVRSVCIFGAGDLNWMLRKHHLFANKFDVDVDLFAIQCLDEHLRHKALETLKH
Procedure: (§1) To measure core 2 GlcNAc-T activity, leukocytes were washed in PES, frozen and lysed in 0.9% Triton X-100 at 0° C. The activity of core 2 GlcNAc-T was measured as described previously (Chibber, Diabetes 49, 1724-1730 (2000)). Briefly, the reaction was performed in a reaction mixture containing 50 mM 2(N-morpholino)ethanesulfonic acid (MES, Sigma, Dorset, UK), pH 7.0, 1 mM UDP-6 [′H]-N-acetylglucosamine (16,000 dpm/nmol, NEN Life Science Products, Hounslow, UK), 0.1 M GlcNAc (Sigma, Dorset, Okla.), 1 mM Galβ1-3GalNAcα-p-nitrophenol (Sigma, Dorset, UK) as substrate, and […] of cell lysate (100-200 μg protein) for a final volume of […]. After incubating the mixture for 1 hour at 37° C., the reaction was terminated with 1 ml of ice-cold distilled water and processed on a C18 Sep-Pak column (Waters-Millipore, Watford, UK). After washing the column with 20 ml of distilled water, the product was eluted with 5 ml of methanol. The radioactivity of the samples was counted in a liquid scintillation β-counter (LKB-Wallac, London, UK). Endogenous activity of core 2 GlcNAc-T was measured in the absence of the added acceptor. The specific activity was expressed as pmoles/h/mg of cell protein. In each case, the protein concentration was determined with BioRad protein assay (BioRad, Hertfordshire, UK).

[2] = molecular target: T2, core 2 GlcNAc-T (Mus musculus, UniProt Q09324); assay: Cell free assay of core 2 GlcNAc-T on heart lysates of TNF-α mice; assay type: biochemical
T2 construct: heart lysates from either from TNF-alpha over expressing transgenic mice; tissue Taconic-M+B (mice) B6.5JL-Tg (TNF); host or cells: heart lysate of TNF-alpha over-expressing transgenic mice
T2 sequence (Q09324 1-428): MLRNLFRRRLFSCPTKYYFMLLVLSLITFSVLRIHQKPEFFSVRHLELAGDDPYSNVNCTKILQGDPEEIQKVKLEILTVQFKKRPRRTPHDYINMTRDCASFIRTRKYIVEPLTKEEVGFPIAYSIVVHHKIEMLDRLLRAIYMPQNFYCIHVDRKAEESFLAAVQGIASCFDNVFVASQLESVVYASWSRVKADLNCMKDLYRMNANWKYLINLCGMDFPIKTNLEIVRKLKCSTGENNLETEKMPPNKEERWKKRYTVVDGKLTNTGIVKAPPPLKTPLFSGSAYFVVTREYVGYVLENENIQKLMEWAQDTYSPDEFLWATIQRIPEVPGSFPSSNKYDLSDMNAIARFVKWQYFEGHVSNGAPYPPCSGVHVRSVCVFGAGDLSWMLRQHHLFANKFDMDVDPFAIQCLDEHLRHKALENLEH
Procedure: (§2) For Glucose induction of Core 2 GlcNAc-T leukocytes (U937 cells) are exposed to normal glucose (5.8 mM) or high glucose (15 mM) for 24 hours at 37° C. After incubation, the cells maybe lysed and frozen at −20° C. until used for the measurement of core 2 GlcNAc-T. or used immediately. For TNF-α induction of core 2 GlcNAc-T, Human leukocytes(U937 cells) are exposed to human recombinant TNF-alpha (8 pg/ml) in the presence and absence of test compounds After 24 h incubation, the activity of core 2 GlcNAc-T was measured, and expressed as pmoles/h/mg protein. For cell free assay of core 2 GlcNAc-T heart lysates from either from TNF-alpha over expressing transgenic mice (female, B6.5JL-Tg (TNF) supplied by Taconic-M+B, Bomholtveg 10, 8680 Ry, Denmark) or from BB rats (Festing 1979) are exposed to various concentrations of test compound for 1 h at 37° C. Activity of core 2
(§3) GlcNAc-T is measured, and expressed as pmoles/h/mg protein.
as §1

[3] = molecular target: T1, Core 2 GlcNAc-T; assay: Cell based assay of core 2 GlcNAc-T activity in human leukocytes (U937 cells)
Procedure: (§4) FIG. 17a and FIG. 17b are graphs illustrating the effect of purified trigoneoside IVa, glycoside F, and shatavarin IV on Core 2 GlcNAc-T activity in cell free (FIG. 17a) and cell based (FIG. 17b) assays. In cell free assays heart lysate from BB rats were incubated in the presence, and absence of 20 ng/ml of each compound. After 1 h incubation at 37° C., the activity of core 2 GlcNAc-T was measured, and expressed as pmoles/h/mg protein. The results are the mean of 3-5 separate experiments. In cell based assays human leukocytes (U937 cells) were exposed to 8 pg/ml human recombinant TNF-alpha in the presence and absence of 20 ng/ml of the test compound. After 24 h incubation, the activity of core 2 GlcNAc-T was measured, and expressed as pmoles/h/mg protein.
as §2, §1

[4] = molecular target: core 2 GlcNAc-T (Rattus norvegicus, UniProt Q64165); assay: Cell free assay of core 2 GlcNAc-T on heart lysates of BB rats; assay type: biochemical
core 2 GlcNAc-T (Rattus norvegicus, UniProt Q64165), sequence (Q64165 entry or part of it): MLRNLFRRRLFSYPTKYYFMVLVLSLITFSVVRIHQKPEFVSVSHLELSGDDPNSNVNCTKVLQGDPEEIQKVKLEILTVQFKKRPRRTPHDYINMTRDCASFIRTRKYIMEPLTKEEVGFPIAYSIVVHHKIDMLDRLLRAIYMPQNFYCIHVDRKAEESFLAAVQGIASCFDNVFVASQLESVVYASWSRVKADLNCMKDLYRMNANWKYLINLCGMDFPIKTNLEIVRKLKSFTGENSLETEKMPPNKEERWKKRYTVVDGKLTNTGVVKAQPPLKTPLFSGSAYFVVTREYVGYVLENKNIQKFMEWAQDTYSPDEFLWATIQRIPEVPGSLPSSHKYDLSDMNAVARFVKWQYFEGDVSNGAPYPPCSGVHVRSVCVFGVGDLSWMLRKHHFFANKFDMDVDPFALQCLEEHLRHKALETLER
Procedure: as §4
For Glucose induction of Core 2 GlcNAc-T leukocytes (U937 cells) are exposed to normal glucose (5.8 mM) or high glucose (15 mM) for 24 hours at 37° C. After incubation, the cells maybe lysed and frozen at −20° C. until used for the measurement of core 2 GlcNAc-T. or used immediately. For TNF-α induction of core 2 GlcNAc-T, Human leukocytes(U937 cells) are exposed to human recombinant TNF-alpha (8 pg/ml) in the presence and absence of test compounds After 24 h incubation, the activity of core 2 GlcNAc-T was measured, and expressed as pmoles/h/mg protein. […]
as §3
To measure core 2 GlcNAc-T activity, leukocytes were washed in PES, frozen and lysed in 0.9% Triton X-100 at 0° C. The activity of core 2 GlcNAc-T was measured as described previously (Chibber, Diabetes 49, 1724-1730 (2000)). […] The radioactivity of the samples was counted in a liquid scintillation β-counter (LKB-Wallac, London, UK). Endogenous activity of core 2 GlcNAc-T was measured in the absence of the added acceptor. The specific activity was expressed as pmoles/h/mg of cell protein. In each case, the protein concentration was determined with BioRad protein assay (BioRad, Hertfordshire, UK).

[5] = heart lysates of TNF-α mice, read-out: Approximate Ic50 values, Cell free assay
[6] = read-out: Approximate Ic50 values, Cell based assay

pIC50 [2, 5] | pIC50 [3, 6] | Compound | other results
 |  | C[C@@H](CC[C@@]1(O)O[C@H]2C[C@H]3[C@@H]4CC=C5C[C@@H](O[C@@H]6O[C@H](CO)[C@@H](O[C@@H]7O[C@@H](C)[C@H](O)[C@@H](O)[C@H]7O)[C@H](O)[C@H]6O[C@@H]6O[C@@H](C)[C@H](O)[C@@H](O)[C@H]6O)CC[C@]5(C)[C@H]4CC[C@]3(C)[C@H]2[C@@H]1C)CO[C@@H]1O[C@H](CO)[C@@H](O)[C@H](O)[C@H]1O [Trigonelloside C] | inhibition of Core 2 GlcNAc-T ([1]; at 2.5 nM, preparation 98.2% pure): 69%
9.05 | 7.12 | C[C@@H](CCC1(O)O[C@H]2C[C@H]3[C@@H]4CC=C5C[C@@H](O[C@@H]6O[C@H](CO)[C@@H](O[C@@H]7O[C@H](CO)[C@@H](O)[C@H](O)[C@H]7O)[C@H](O)[C@H]6O[C@@H]6O[C@@H](C)[C@H](O)[C@@H](O)[C@H]6O)CC[C@]5(C)[C@H]4CC[C@]3(C)[C@H]2[C@@H]1C)CO[C@@H]1O[C@H](CO)[C@@H](O)[C@H](O)[C@H]1O (stereo partly drawn) [Trigoneoside IVa, (3β,25 S)-26-(β-D-glucopyranosyloxy)-22-hydroxyfurost-5-en-3-yl O-6-deoxy-α-L-mannopyranosyl-(1→2)-O-[β-D-glucopyranosyl-(1→4)]-β-D-glucopyranoside] | pIC50 ([2]; in cell free systems, read-out: approximate IC50): 9.05 to 9.60
8.52 | 9.60 | C[C@H](CC[C@@]1(O)O[C@H]2C[C@H]3[C@@H]4CC=C5C[C@@H](O[C@@H]6O[C@H](CO)[C@@H](O)[C@H](O[C@@H]7O[C@H](CO)[C@@H](O)[C@H](O)[C@H]7O)[C@H]6O[C@@H]6O[C@@H](C)[C@H](O)[C@@H](O)[C@H]6O)CC[C@]5(C)[C@H]4CC[C@]3(C)[C@H]2[C@@H]1C)CO[C@@H]1O[C@H](CO)[C@@H](O)[C@H](O)[C@H]1O [Protogracillin] | 
7.46 | 7.30 | CC1=C(CC[C@@H](C)CO[C@@H]2O[C@H](CO)[C@@H](O)[C@H](O)[C@H]2O)O[C@H]2C[C@H]3[C@@H]4CC=C5C[C@@H](O[C@@H]6O[C@H](CO)[C@@H](O[C@@H]7O[C@@H](C)[C@H](O)[C@@H](O)[C@H]7O)[C@H](O)[C@H]6O[C@@H]6O[C@@H](C)[C@H](O)[C@@H](O)[C@H]6O)CC[C@]5(C)[C@H]4CC[C@]3(C)[C@@H]12 [Pseudoprotodioscin, (3β,22α,25R)-26-(β-D-glucopyranosyloxy)-furosta-5,20(22)-dien-3-yl O-6-deoxy-α-L-mannopyranosyl (1→2)-046-deoxy-α-L-mannopyranosyl-(1→4)]-[3-D-Glucopyranoside] | 
9.00 | 9.12 | C[C@@H](CC[C@@]1(O)O[C@H]2C[C@H]3[C@@H]4CC[C@@H]5C[C@@H](O[C@@H]6O[C@H](CO)[C@@H](O[C@@H]7O[C@H](CO)[C@@H](O)[C@H](O)[C@H]7O)[C@H](O)[C@H]6O[C@@H]6O[C@@H](C)[C@H](O)[C@@H](O)[C@H]6O)CC[C@]5(C)[C@H]4CC[C@]3(C)[C@H]2[C@@H]1C)CO[C@@H]1O[C@H](CO)[C@@H](O)[C@H](O)[C@H]1O [Shatavarin I, (3β,5β,22α,25S)-26-(β-D-glucopyranosyloxy)-22-hydroxyfurostan-3-yl O-6-deoxy-α-L-mannopyranosyl-(1-42)-O-[β-D-glucopyranosyl-(1→4)]-β-D-glucopyranoside] | 
 |  | CC(CCC1(O)OC2CC3C4CC=C5CC(OC6OC(CO)C(OC7OC(CO)C(O)C(O)C7O)C(O)C6OC6OC(C)C(O)C(O)C6O)CCC5(C)C4CCC3(C)C2C1C)COC1OC(CO)C(O)C(O)C1O [Glycoside F, (3β,25R)-26-(β-D-glucopyranosyloxy)-22-hydroxyfurost-5-en-3-yl O-6-deoxy-α-L-mannopyranosyl-(1→2)-O-[β-D-glucopyranosyl-(1→4)]-β-D-glucopyranoside] | inhibition at 0.022 µM ([4]; at 22 nM in BB rat heart lysate): 100%
8.35 | 8.60 | C[C@@H]1CC[C@@]2(OC1)O[C@H]1C[C@H]3[C@@H]4CC=C5C[C@@H](O[C@@H]6O[C@H](CO)[C@@H](O)[C@H](O[C@@H]7O[C@H](CO)[C@@H](O)[C@H](O)[C@H]7O)[C@H]6O[C@@H]6O[C@@H](C)[C@H](O)[C@@H](O)[C@H]6O)CC[C@]5(C)[C@H]4CC[C@]3(C)[C@H]1[C@@H]2C [Gracillin, (3β,25R)-spirost-5-en-3-yl O-6-deoxy-α-L-mannopyranosyl-(1→2)-O-[β-D-glucopyranosyl-(1→3)]-β-D-glucopyranoside] | 
 |  | C[C@H](CC[C@@]1(O)O[C@H]2C[C@H]3[C@@H]4CC=C5C[C@@H](O[C@@H]6O[C@H](CO)[C@@H](O[C@@H]7O[C@@H](C)[C@H](O)[C@@H](O)[C@H]7O)[C@H](O)[C@H]6O[C@@H]6O[C@@H](C)[C@H](O)[C@@H](O)[C@H]6O)CC[C@]5(C)[C@H]4CC[C@]3(C)[C@H]2[C@@H]1C)CO[C@@H]1O[C@H](CO)[C@@H](O)[C@H](O)[C@H]1O [Protodioscin] | pIC50 ([4]; heart lysates of BB rats, read-out: Approximate Ic50 values, Cell free assay): 7.70; pIC50 ([4]; system not restated, values as in Table 9 cell free assay, read-out: IC50): ~7.70; inhibition of Core 2 GlcNAc-T compared to controls ([3]; 20 ng/ml, TNF-α treated Human leukocytes (U937 cells)): approximately 98.5%; activity ([1]; sample prepared from Tribulus terrestris, 97% pure, concentrations of 50 μM): no activity
 |  | C[C@@H]1CC[C@@]2(OC1)O[C@H]1C[C@H]3[C@@H]4CC=C5C[C@@H](O[C@@H]6O[C@H](CO)[C@@H](O[C@@H]7O[C@@H](C)[C@H](O)[C@@H](O)[C@H]7O)[C@H](O)[C@H]6O[C@@H]6O[C@@H](C)[C@H](O)[C@@H](O)[C@H]6O)CC[C@]5(C)[C@H]4CC[C@]3(C)[C@H]1[C@@H]2C [Dioscin, (3(3,25R)-spirost-5-en-3-yl O-6-deoxy-α-L-mannopyranosyl-(1→2)-046-deoxy-α-L-mannopyranosyl-(1→4)]-β-D-glucopyranoside] | pIC50 [2]: 7.40; pIC50 [3]: 7.12
